According to patent US20150031655A1, “COMBINATION OF LIVER X RECEPTOR MODULATOR AND ESTROGEN RECEPTOR MODULATOR FOR THE TREATMENT OF AGE-RELATED DISEASES” (UNIVERSITY OF NORTH DAKOTA, priority 2011, published 2015):

How the values were obtained:
[1] = tested on: ERα/β; assay: EMSA, binding of nuclear ER to probe for the ERE half site in the TH promoter; type: cell-based, human; details: nuclear extracts of treated SH-SY5Y, treatment alone vs control
[2] = biological target: T1, ERα (Homo sapiens, UniProt P03372); assay: ChIP, ERα binding to the ERE half site in the TH promoter; type: cell-based; details: SH-SY5Y, treatment alone vs control
T1 construct: endogenous in cells; host or cells: SH-SY5Y human neuroblastoma cells
T1 sequence (P03372 1-595): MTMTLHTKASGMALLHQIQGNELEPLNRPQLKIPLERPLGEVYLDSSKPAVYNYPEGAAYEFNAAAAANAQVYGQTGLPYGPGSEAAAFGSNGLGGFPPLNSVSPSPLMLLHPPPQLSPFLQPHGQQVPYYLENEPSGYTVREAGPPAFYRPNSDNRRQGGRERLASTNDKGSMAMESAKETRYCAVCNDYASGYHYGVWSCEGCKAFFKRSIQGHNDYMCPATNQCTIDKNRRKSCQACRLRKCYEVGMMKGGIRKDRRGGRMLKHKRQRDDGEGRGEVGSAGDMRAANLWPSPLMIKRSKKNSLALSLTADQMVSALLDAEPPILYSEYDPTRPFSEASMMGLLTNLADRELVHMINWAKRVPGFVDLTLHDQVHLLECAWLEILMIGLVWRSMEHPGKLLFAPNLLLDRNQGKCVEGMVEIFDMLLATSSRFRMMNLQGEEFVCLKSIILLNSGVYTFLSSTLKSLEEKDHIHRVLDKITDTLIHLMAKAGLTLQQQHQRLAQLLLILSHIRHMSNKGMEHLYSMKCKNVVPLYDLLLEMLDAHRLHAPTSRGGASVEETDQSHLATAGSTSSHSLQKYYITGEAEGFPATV
Description: (§1) Human neuroblastoma SH-SY5Y cells were grown in DMEM/F12 medium containing 10% fetal bovine serum (FBS) and 1% antibiotic/antimycotic mix. Cells were maintained at 37° C. in a saturated humidity atmosphere containing 95% air and 5% CO2.
(§2) ChIP analysis was performed to evaluate the extent of ERα/ERβ and LXRα/LXRβ binding to the DNA elements in the TH promoter and α-synuclein promoter regions respectively using “SimpleChIP™ Enzymatic Chromatic IP kit” from Cell Signaling (Boston, Mass.).
(§3) Briefly, cells from each treatment group (3×10^6 cells) were washed with PBS, trypsinized, centrifuged at 5000 g. The pellet containing the cells was further washed with PBS and cross-linked using 37% formaldehyde for 15 min followed by the addition of glycine solution to cease the cross-linking reaction.
(§4) The cells were washed with 4× volumes of 1×PBS and centrifuged at ˜220 g for 5 min. The pellet was resuspended and incubated for 10 min in 5 ml of tissue lysis buffer containing DTT and protease and phosphatase inhibitors. The subsequent steps to isolate the cross-linked chromatin were performed according to the manufacturer's protocol.
(§5) The cross-linked chromatin from each sample was apportioned into four equal parts.

[3] = biological target: T2, ERβ (Homo sapiens, UniProt Q92731); assay: ChIP, ERβ binding to the ERE half site in the TH promoter; type: cell-based; details: SH-SY5Y, treatment alone vs control
T2 construct: endogenous in cells; host or cells: SH-SY5Y human neuroblastoma cells
T2 sequence (Q92731 whole entry): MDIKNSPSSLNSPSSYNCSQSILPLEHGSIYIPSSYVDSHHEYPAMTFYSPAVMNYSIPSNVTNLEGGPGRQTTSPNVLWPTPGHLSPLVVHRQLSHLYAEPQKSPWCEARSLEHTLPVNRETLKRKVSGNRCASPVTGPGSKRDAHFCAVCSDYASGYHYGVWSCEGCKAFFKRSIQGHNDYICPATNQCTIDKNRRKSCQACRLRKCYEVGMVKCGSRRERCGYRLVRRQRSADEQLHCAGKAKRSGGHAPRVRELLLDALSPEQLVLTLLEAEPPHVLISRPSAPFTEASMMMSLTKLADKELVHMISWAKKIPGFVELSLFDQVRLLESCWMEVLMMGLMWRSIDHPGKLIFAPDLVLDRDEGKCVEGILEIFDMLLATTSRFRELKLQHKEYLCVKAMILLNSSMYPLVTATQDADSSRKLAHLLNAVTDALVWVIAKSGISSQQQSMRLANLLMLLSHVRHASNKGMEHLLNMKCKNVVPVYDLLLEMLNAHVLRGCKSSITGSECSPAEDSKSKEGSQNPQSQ
Description: as §1, §2, §3, §4, §5

[4] = tested on: ERE-mediated transcription; assay: Dual-luciferase ERE reporter assay (ER-mediated transcription); type: cell-based, human; details: SH-SY5Y transfected with ERE-luciferase, 24 h
Description: Constructs encoding ERE and TH promoter conjugated to the firefly luciferase gene were used in the study. Human neuroblastoma SH-SY5Y cells were plated in 96-well plates at a density of 2×10^4 cells/well.
The cells were transfected when 80% confluent with 0.25 μg of either ERE-firefly Luciferase reporter construct, LXRE-firefly Luciferase reporter construct, or TH promotor-firefly Luciferase promoter construct. Respective non-inducible reporter constructs containing constitutively expressing Renilla luciferase were used as negative internal controls. Constitutively expressing GFP constructs were used as positive control to determine transfection efficiency.
Cells were incubated for 24 hours with Opti-MEM serum free medium (Invitrogen, Carlsbad, Calif.) containing the reporter constructs dissolved in transfection reagent. After 24 hours the medium was changed and the cells were incubated in normal DMEM/F12 medium containing 10% FBS and cells were treated with the different treatment regimens.
The cells were treated in triplicate and harvested 24 hours later and subjected to dual-luciferases assay. The dual-luciferase assay was performed using a “Dual-Luciferase Reporter Assay System” from Promega (Madison, Wis.). The luminescence recorded is expressed as Relative Luminescence Units (RLU) and normalized to per mg protein. […]

[5] = tested on: TNF-α; assay: TNF-α levels in ARPE-19 cells; type: cell-based; details: ARPE-19, 24 h, 10 μM, alone vs control

SMILES: C[C@@H](CO)CCC[C@@H](C)[C@H]1CC[C@H]2[C@@H]3CC=C4C[C@@H](O)CC[C@]4(C)[C@H]3CC[C@]12C [27-OHC, 27-hydroxycholesterol]
- binding of nuclear ER to the DNA probe corresponding to the ERE-half site on the TH promoter [1]: lower binding
- ERα binding to the ERE on the TH promoter [2]: no significant attenuation
- attenuation of ERβ binding to the ERE on the TH promoter [3]: 4 fold
- decrease of ER-mediated transcription [4]: ~5 fold
- TNF-α levels [5]: increases
